Drawing on PubChem BioAssay (NCI), this text covers TGI and GI50 for 15 molecules.

Each structure is given as a SMILES string.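 Exposure lasted 48 hours, with cells grown in 96-well plates and compounds tested at five concentrations. At the GI50, growth is halved. TGI marks complete inhibition of growth.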 Bounds are passed on as bounds.

Test systems include CCRF-CEM leukemia; LOX IMVI melanoma; OVCAR-4 ovarian; OVCAR-8 ovarian; RPMI-8226 leukemia; SF-268 CNS; SK-MEL-28 melanoma; SW-620 colon; UACC-62 melanoma.
What all share (assay): growth of human tumour cells (NCI), 48 h

As to `CS(=O)c1ccc(COP(N)(=O)N(CCCl)CCCl)cc1` (configuration not stated), the TGI with CCRF-CEM leukemia, in the test with LOX IMVI melanoma, with OVCAR-4 ovarian, in the test on OVCAR-8 ovarian, in the test on RPMI-8226 leukemia and with SF-268 CNS was greater than 100 µM throughout. Further, the TGI in the test with SK-MEL-28 melanoma, in the test on SW-620 colon and with UACC-62 melanoma was greater than 100 µM in each case.
On to `O=C(O)C12C3CCCC1C2CC3` (configuration not stated), for which the TGI with CCRF-CEM leukemia, with LOX IMVI melanoma, with OVCAR-8 ovarian, with RPMI-8226 leukemia, in the test on SF-268 CNS and in the test with SK-MEL-28 melanoma was greater than 100 µM in each case. This molecule also came in with a TGI with UACC-62 melanoma greater than 100 µM.
Turning to `COC(=O)c1c(CC#N)cccc1CC#N`, the TGI with CCRF-CEM leukemia, with LOX IMVI melanoma, in the test on OVCAR-4 ovarian, in the test with OVCAR-8 ovarian, in the test on RPMI-8226 leukemia and in the test on SF-268 CNS was greater than 100 µM in each case. The TGI in the test with SW-620 colon and with UACC-62 melanoma was greater than 100 µM throughout.
Take `Nc1c(-c2nc3ccccc3[nH]2)sc(=S)n1-c1ccccc1`: the TGI with CCRF-CEM leukemia is 81.2 µM; in the test with OVCAR-4 ovarian it was greater than 100 µM; with OVCAR-8 ovarian, greater than 100 µM; with RPMI-8226 leukemia it was greater than 100 µM; in the test with SF-268 CNS it was greater than 100 µM; in the test with SK-MEL-28 melanoma, greater than 100 µM. The figures for the TGI with SW-620 colon and in the test on UACC-62 melanoma were greater than 100 µM and 70 µM, respectively.
Consider `CC1(C)OCC(CO)(Nc2nc(N3CC3)nc(N3CC3)n2)CO1`, for which the TGI in the test on CCRF-CEM leukemia is greater than 83.4 µM; in the test on LOX IMVI melanoma, 32.4 µM; with OVCAR-4 ovarian, 41.9 µM; with OVCAR-8 ovarian it was 33.1 µM; in the test on RPMI-8226 leukemia, greater than 100 µM; in the test on SF-268 CNS, 27.6 µM. The values for the TGI in the test on SK-MEL-28 melanoma, in the test on SW-620 colon and in the test on UACC-62 melanoma were 53 µM, 64.1 µM and 14 µM, respectively.
For `N.N.NC(CS)C(=O)[O-].NC(CS)C(=O)[O-].[Pt+4]` (configuration not stated), the GI50 with CCRF-CEM leukemia, with LOX IMVI melanoma, in the test with OVCAR-4 ovarian, with OVCAR-8 ovarian, in the test with RPMI-8226 leukemia and in the test on SF-268 CNS was greater than 50 µM in each case. The GI50 in the test with SK-MEL-28 melanoma, with SW-620 colon and in the test on UACC-62 melanoma was greater than 50 µM throughout. In addition, the TGI in the test with CCRF-CEM leukemia, with LOX IMVI melanoma, in the test with OVCAR-4 ovarian, in the test with OVCAR-8 ovarian, with RPMI-8226 leukemia and in the test on SF-268 CNS was greater than 50 µM throughout. Moreover, the TGI in the test on SK-MEL-28 melanoma, in the test on SW-620 colon and with UACC-62 melanoma was greater than 50 µM throughout.
Consider `O=C1OC2(c3ccccc3Oc3ccccc32)c2ccccc21`, for which the TGI in the test on CCRF-CEM leukemia, in the test with LOX IMVI melanoma, in the test with OVCAR-4 ovarian, in the test on OVCAR-8 ovarian, with RPMI-8226 leukemia and in the test on SF-268 CNS was greater than 100 µM throughout. Further, the TGI with SK-MEL-28 melanoma, in the test on SW-620 colon and in the test on UACC-62 melanoma was greater than 100 µM in each case.
On to `C=C1CC[C@@H]2C(C)(C)CCC[C@@]2(C)[C@@H]1Cc1cc(O)ccc1O`, for which the TGI in the test with CCRF-CEM leukemia came to 5.23 µM; in the test on LOX IMVI melanoma it was 5.35 µM; in the test with OVCAR-4 ovarian, 3.72 µM; in the test on OVCAR-8 ovarian, 15.1 µM; with RPMI-8226 leukemia, 15.9 µM; in the test with SF-268 CNS, 12.9 µM. Moreover, the TGI was 9.83 µM in the test with SK-MEL-28 melanoma, 23.8 µM in the test on SW-620 colon and 22.8 µM in the test with UACC-62 melanoma.
With `O=[N+]([O-])C1C2C=CC(C2)[C@H]1c1ccccc1Cl` (some centres not stated), the TGI with CCRF-CEM leukemia was greater than 100 µM; with LOX IMVI melanoma, greater than 100 µM; in the test with OVCAR-4 ovarian, greater than 10 µM; with OVCAR-8 ovarian it was greater than 100 µM; in the test on RPMI-8226 leukemia it was greater than 100 µM; in the test with SF-268 CNS it was greater than 100 µM. Further, the TGI was greater than 100 µM in the test with SK-MEL-28 melanoma, greater than 100 µM in the test on SW-620 colon and greater than 31.6 µM in the test with UACC-62 melanoma.
`COC(=O)c1nc(NC#N)[nH]c(=O)c1C`: the TGI in the test on CCRF-CEM leukemia, with LOX IMVI melanoma, in the test with OVCAR-4 ovarian, in the test on OVCAR-8 ovarian, in the test on RPMI-8226 leukemia and in the test with SF-268 CNS was greater than 100 µM each time. Besides, the TGI in the test with SK-MEL-28 melanoma, in the test with SW-620 colon and in the test with UACC-62 melanoma was greater than 100 µM each time.
Take `CCOC(=O)C1C(=O)c2ccccc2CN1Cc1ccccc1` (configuration not stated): the TGI in the test with CCRF-CEM leukemia, with LOX IMVI melanoma, in the test with OVCAR-4 ovarian, in the test with OVCAR-8 ovarian, in the test on RPMI-8226 leukemia and with SF-268 CNS was greater than 100 µM each time. The TGI with SK-MEL-28 melanoma, in the test on SW-620 colon and with UACC-62 melanoma was greater than 100 µM each time.
For the molecule `CCOC(=O)C(=O)Nc1c(N(CC)CC)n2ccccc2nc1=O`, the TGI with CCRF-CEM leukemia, in the test on OVCAR-8 ovarian, with RPMI-8226 leukemia, with SF-268 CNS, with SW-620 colon and in the test on UACC-62 melanoma was greater than 100 µM in each case.
With `CCOP(=O)(OCC)/C(C#N)=C/c1ccco1`, the TGI in the test on CCRF-CEM leukemia, in the test on LOX IMVI melanoma, in the test with OVCAR-4 ovarian, with OVCAR-8 ovarian, in the test on RPMI-8226 leukemia and in the test with SF-268 CNS was greater than 100 µM throughout. For the same molecule, the TGI in the test on SK-MEL-28 melanoma, in the test on SW-620 colon and in the test with UACC-62 melanoma was greater than 100 µM each time.
In the case of `CC(=O)/C=C/c1ccc(C2CC(C)=Nc3c(ccc4c3C(=O)c3ccccc3C4=O)N2)cc1` (configuration not stated), the TGI in the test on CCRF-CEM leukemia, with LOX IMVI melanoma, with OVCAR-4 ovarian, with OVCAR-8 ovarian, in the test on RPMI-8226 leukemia and with SF-268 CNS was greater than 100 µM in each case. Moreover, the TGI in the test with SK-MEL-28 melanoma, in the test with SW-620 colon and with UACC-62 melanoma was greater than 100 µM each time.
Regarding `c1ccc(N=C2c3ccccc3C3=NCCCN32)cc1`, the TGI with CCRF-CEM leukemia, in the test with LOX IMVI melanoma, in the test on OVCAR-4 ovarian, in the test on OVCAR-8 ovarian, in the test with RPMI-8226 leukemia and with SF-268 CNS was greater than 100 µM each time. The TGI in the test on SK-MEL-28 melanoma, with SW-620 colon and in the test with UACC-62 melanoma was greater than 100 µM each time.
